Test results reported in PMC12524408 (International Journal of Molecular Sciences, 2025).

Assays:
[1] = PEG-AM plasma concentration, Study No. P170454; type: in vivo; details: 1 nmol/kg single i.v.; mouse; fluorescence immunoassay
Description: Figure 4 Dose-dependent effects of intravenous PEG-AM administration in DSS-induced colitis (Study No. P170454). (a) Overview of the experimental design. Groups: vehicle (n = 10), PEG-AM 1 nmol/kg (n = 10), 5 nmol/kg (n = 10), 25 nmol/kg (n = 10). (b) Total inflammation scores on day 8. (c) Colon length. (d) Colon weight-to-length ratio. (e) PEG-AM plasma concentrations on day 8.
Colitis was induced with 3% (w/v) DSS (MW 5000) in drinking water for seven days. PEG-AM (1.0, 5.0, and 25 nmol/kg) or saline (control) was administered intravenously one day before DSS treatment. Each group included 10 mice. Stool consistency, bleeding, and body weight were evaluated on days −1, 0, 3, 5, and 7. A total inflammation score was calculated. Mice were anesthetized with 3% isoflurane (Zoetis Japan, Tokyo, Japan), and the colon was excised on day 7.

[2] = tested on: RAMP1, RAMP2, RAMP3, CLR; assay: Gene expression of receptor components in distal colon, Study No. P180567; type: in vivo, mouse; details: 25 nmol/kg i.v., qPCR, 2^-ΔΔCt, GAPDH normalization, vs control
Description: Figure 5 Effect of 25 nmol/kg PEG-AM in DSS-induced colitis (Study No. P180567). (a) Overview of the experimental design. Groups: vehicle (n = 20), PEG-AM 25 nmol/kg (n = 20). (b) Total inflammation scores on day 8. ** p < 0.01, Mann–Whitney U test. (c) Bloody stool scores on day 8, *** p < 0.001, Mann–Whitney U test. (d) Colon length. (e) Colon weight-to-length ratio, ** p < 0.01, unpaired t-test. (f) PEG-AM plasma concentrations on day 8. (g–j) Fold changes in gene expression of RAMP1 (g), RAMP2 (h), RAMP3 (i), and CLR (j). * p < 0.05, unpaired t-test.
(§1) After measuring colon length and weight, distal colon tissue was collected, immersed in RNAlater (Thermo Fisher Scientific K.K.), and stored at −80 °C until RNA extraction. Total RNA was extracted using the RNeasy Micro Kit (Qiagen, Singapore) and quantified using a DeNovix DS-11 Microvolume Spectrophotometer. cDNA was synthesized from 2 μg of total RNA using a high-capacity cDNA Reverse Transcription Kit (Thermo Fisher Scientific K.K.). Quantitative PCR was performed using the StepOnePlus Real-Time PCR System (Applied Biosystems, Waltham, MA, USA) and TaqMan Gene Expression Assays for mouse RAMP1, RAMP2, RAMP3, CLR (CALCRL), and GAPDH (internal control). […]
All reactions were performed in duplicate. Relative expression levels were calculated using the 2^−ΔΔCt method with GAPDH normalization.

[3] = tested on: DSS-induced colitis; assay: Therapeutic effect of PEG-AM after onset of DSS colitis (Study No. P200487); type: in vivo, mouse; details: vs control, n = 6
Method: DSS was administered for five days to induce colitis, followed by the administration of PEG-AM or saline on day 5. DSS was replaced with water on day 6 to evaluate recovery. […] (a) Overview of the experimental design. Groups: vehicle (n = 6), PEG-AM 25 nmol/kg (n = 6), 250 nmol/kg (n = 6). (b) Time course of total inflammation scores after PEG-AM administration. (c) Colon length, * p < 0.05, one-way ANOVA followed by Dunnett’s multiple-comparisons test. ns, not significant. (d) Colon weight-to-length ratio, * p < 0.05, one-way ANOVA followed by Dunnett’s multiple-comparisons test. ns, not significant. (e) PEG-AM plasma concentrations on day 12. (f–i) Fold changes in gene expression of RAMP1 (f), RAMP2 (g), RAMP3 (h), and CLR (i). To evaluate the pharmacological effects of PEG-AM, three animal studies were conducted by the LSI Medience Corporation following the Animal Welfare Act and institutional approval. Seven-week-old male C57BL/6J JCL mice (CLEA Japan, Inc., Tokyo, Japan) were used in all studies and were housed under pathogen-free conditions. Colitis was induced with 2% (w/v) DSS (MW 36,000–50,000) for five days. On day 5, the mice were assigned to three groups and intravenously administered one of PEG-AM (25 or 250 nmol/kg) or saline. On day 6, DSS was replaced with water. Clinical symptoms were evaluated on days 5, 8, 10, and 12. The inflammation scores were calculated. Colons were collected on day 12 under isoflurane anesthesia.

[4] = tested on: RAMP1, RAMP2, RAMP3, CLR; assay: Gene expression of receptor components in distal colon, Study No. P200487; type: in vivo, mouse; details: 25 and 250 nmol/kg i.v., day 12, qPCR
Description: Figure 6 Therapeutic effects of PEG-AM administered after disease onset in DSS-induced colitis (Study No. P200487). (a) Overview of the experimental design. Groups: vehicle (n = 6), PEG-AM 25 nmol/kg (n = 6), 250 nmol/kg (n = 6). (b) Time course of total inflammation scores after PEG-AM administration. (c) Colon length, * p < 0.05, one-way ANOVA followed by Dunnett’s multiple-comparisons test. ns, not significant. (d) Colon weight-to-length ratio, * p < 0.05, one-way ANOVA followed by Dunnett’s multiple-comparisons test. ns, not significant. (e) PEG-AM plasma concentrations on day 12. (f–i) Fold changes in gene expression of RAMP1 (f), RAMP2 (g), RAMP3 (h), and CLR (i).
as §1

Gene expression of receptor components (RAMP1, RAMP2, RAMP3, CLR) [2]: no downregulation
Receptor component expression (RAMP1, RAMP2, RAMP3, CLR) [4]: No downregulation
Substance: 40 kDa PEGylated adrenomedullin [PEG-AM]
PEG-AM plasma concentration on day 8 [1]: undetectable
Colon weight per unit length ([3]; 250 nmol/kg i.v. on day 5 after DSS onset, day 12, p = 0.039, Dunnett's test): significantly lower
Total inflammation scores over time ([3]; 25 or 250 nmol/kg i.v. on day 5 after 2% DSS (MW 36,000-50,000) for five days, days 5-12): did not significantly alter
Colon length ([3]; i.v. on day 5 after DSS onset, day 12, p = 0.014, one-way ANOVA with Dunnett's test, dose group not given): significantly longer
RAMP2 expression [4]: increased in a dose-dependent manner; however, the increase was not statistically significant
